Test results: BindingDB's records for doi:10.1021/jm301304e (University of Toyama, 2012)

Assay: Inhibition of bovine liver beta-glucosidase

Row | IC50 [µM] | Compound
1 | 210 | OC[C@H]1NC[C@H](O)[C@@H](O)[C@@H]1O [(2R,3R,4R,5S)-2-(hydroxymethyl)piperidine-3,4,5-triol]
2 | 120 | CCCC[C@H]1N[C@H](CO)[C@@H](O)[C@H](O)[C@H]1O [(2R,3S,4R,5R,6R)-2-butyl-6-(hydroxymethyl)piperidine-3,4,5-triol]
